Measurements reported in ChEMBL document CHEMBL1126426, “Nucleotidic prodrugs of anti-HIV dideoxynucleosides” (Bioorg Med Chem Lett, 1992).

Legend:
CCRF-CEM = experiment: The compound was evaluated for the activity on HIV infected CEM cells.; assay type: functional; settings: Homo sapiens, read-out: ED50 (the source's name)
[1] = The compound was evaluated for its stability in RPMI containing 10 % of heat-inactivated FCS.; assay type: physicochemical; settings: cattle, RPMI culture medium with 10% heat-inactivated FCS
[2] = Kinetic constant in RPMI containing 10 % of heat-inactivated FCS.; assay type: ADME; settings: cattle
[3] = The compound was evaluated for its stability in CEM extract; S - Stable; assay type: physicochemical; settings: human
[4] = The compound was evaluated for its stability in RPMI at pH of 7.2 dose 10 x 10e-3; S - Stable; assay type: physicochemical; settings: pH 7.2
[5] = Kinetic constant in RPMI containing 10 % of FCS.; assay type: ADME; settings: cattle
[6] = The compound was evaluated for its stability in RPMI containing 10 % of FCS.; assay type: physicochemical; settings: cattle, RPMI culture medium with 10% FCS

An EC50 (CCRF-CEM) of 100 nM was found for `Nc1ccn([C@H]2CC[C@@H](CO)O2)c(=O)n1` [ZALCITABINE] in this work.
A half-life [1] of 48 h, an EC50 (CCRF-CEM) of 50 nM and a k [2] of 0.00024 min⁻¹ were found for `Nc1ccn(C2CCC(COP(=O)(O)OC[C@@H]3CC[C@H](n4ccc(N)nc4=O)O3)O2)c(=O)n1` (some centres undefined) in this work. The T1/2 [3] was “Stable”, the T1/2 [4] was “Stable” and the k [5] was 0.00052 min⁻¹. It also gave a half-life [6] of 22 h.
An EC50 (CCRF-CEM) of 500 nM was found for `COP(=O)(OCC1CCC(n2ccc(N)nc2=O)O1)OC[C@@H]1CC[C@H](n2ccc(N)nc2=O)O1` (some centres undefined) in this work.
